In patent US12297234B2, “Genetically encoded system for constructing and detecting biologically active agents” (The Regents of the University of Colorado, priority 2018, dated 2025):

Columns and labels:
PTP1B [1] = experiment: Mutational analysis of the inhibitor binding site (fractional change in inhibition); assay type: biochemical, H. sapiens; conditions: FIG. 24C
Excerpt: FIG. 24B illustrates exemplary disruptive mutations introduced at each site. Mutations were designed to alter the size and/or polarity of targeted residues. […] Error bars denote SE (propagated from n≥9 independent measurements of each V in Eq. 1).

PTP1B [2] = molecular target: T1, PTP1B (Homo sapiens, UniProt P18031); experiment: PTP1B-catalyzed hydrolysis of pNPP in the presence of inhibitor; assay type: biochemical, H. sapiens
T1 construct: made in house; host or cells: E. coli BL21 (B121 [sic])
T1 sequence (P18031 1-435): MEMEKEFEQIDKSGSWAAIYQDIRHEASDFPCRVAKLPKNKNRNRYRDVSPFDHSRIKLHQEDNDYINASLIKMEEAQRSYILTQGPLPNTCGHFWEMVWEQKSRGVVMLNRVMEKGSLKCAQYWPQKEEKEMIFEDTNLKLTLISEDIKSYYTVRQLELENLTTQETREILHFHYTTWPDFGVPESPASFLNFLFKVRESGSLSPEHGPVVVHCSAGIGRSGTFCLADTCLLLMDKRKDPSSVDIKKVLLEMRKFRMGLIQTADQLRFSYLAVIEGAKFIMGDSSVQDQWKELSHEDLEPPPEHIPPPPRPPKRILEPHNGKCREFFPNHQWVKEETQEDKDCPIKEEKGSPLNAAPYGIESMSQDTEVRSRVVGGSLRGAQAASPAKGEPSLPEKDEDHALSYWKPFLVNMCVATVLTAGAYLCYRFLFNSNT
Excerpt: FIG. 14A illustrates Abietic acid. […] FIG. 14C illustrates Abietic acid (green) docked in the allosteric site of PTP1B. […] Inset highlights active site in black.
FIG. 16A-B illustrates exemplary terpenoids showing differences in stereochemistry, shape, size, and chemical functionality. FIG. 16A illustrates clockwise from abietic acid (1), neoabietic acid (2), levopimaric acid (3), dihydroabietic acid (4). […] No inhibitor. Error bars=standard error (n>5).
Lines show a fit to a model for mixed inhibition. FIG. 22D an exemplary illustration of this model, where the inhibitor (I) binds to the enzyme (E) and enzyme-substrate complex (ES) with different affinities.
Improved inhibitors. We assessed the ability of minor structural perturbations of abietadiene derivatives to yield improved inhibitors by comparing four structurally related (and commercially available) molecules (FIG. 16): abietic, neoabietic, levopimaric, and dihydroabietic acid.
Statistical Analysis of Kinetic Models. We evaluated four kinetic models of inhibition as described previously (19). In brief, we used an F-test to compare a two-parameter mixed model to several single-parameter models, and we used Akaike's Information Criterion (AIC, or Ai) to compare the single-parameter models to one another. […] Exemplary Estimation of IC50. […]

PTP1B [3] = molecular target: T1, PTP1B; experiment: Binding-induced quenching of tryptophan fluorescence of PTP1B; set-up: species or system H. sapiens; conditions: FIG. 17C
Excerpt: FIG. 17A N-HSQC spectra of PTP1B (red) and PTP1B bound to abietic acid (blue). Inset: Crystal structure of PTP1B. […] Error bars represent standard error (n>5).
Binding-induced changes in the tryptophan fluorescence of PTP1B. A screen in which inhibition of PTP1B is linked to changes in tryptophan fluorescence (FIG. 21D) will enable rapid screening of moderately sized libraries (10^3-10^4)^27 in microtiter plates. Our use of binding-induced changes in tryptophan fluorescence is described in 5.6.

| Compound | effect of five mutations distributed across PTP1B on inhibition (PTP1B [1]) | Ki (PTP1B [2]; commercially available abietane-type acids, FIG. 16, read-out: K, (inhibition of PTP1B)) | concentration detected by change in tryptophan fluorescence of PTP1B (PTP1B [3]) | inhibition relative to abietic acid (PTP1B [2]) |
| --- | --- | --- | --- | --- |
| CCc1oc2cc(S(=O)(=O)Nc3ccc(S(=O)(=O)Nc4nccs4)cc3)ccc2c1C(=O)c1cc(Br)c(O)c(Br)c1 [BBR, 3-(3,5-Dibromo-4-hydroxy-benzoyl)-2-ethyl-benzofuran-6-sulfonicacid-(4-(thiazol-2-ylsulfamyl)-phenyl)-amide] | negligible effect | – | – | – |
| Cl.O=C(O)C(=O)Nc1sc2c(c1C(=O)O)CCNC2 [TCS401, 2-[(Carbox-ycarbonyl)amino]-4,5,6,7-tetrahydro-thieno[2,3-c]pyridine-3-carboxylic acid hydrochloride] | reduced inhibition | – | – | – |
| CC(C)C1=CC2=CC[C@@H]3[C@](C)(CCC[C@@]3(C)C(=O)O)[C@H]2CC1 [abietic acid] | reduced inhibition | 250 µM | 50 µM | – |
| CC(C)C1C=C2CCC3C(C)(C(=O)O)CCCC3(C)C2CC1 (stereo not drawn) [dihydroabietic acid] | – | – | – | ten times more inhibitory than abietic acid |
